This is an account of results in PMC10323144, “Garbage in, garbage out: how reliable training data improved a virtual screening approach against SARS-CoV-2 MPro” (Frontiers in Pharmacology, 2023).

A word on the IC50: it is the concentration needed to halve the response being measured. As a reminder, the inhibition is the drop in the measured response relative to a control, in per cent.

Converted amounts (≈) assume the structure as drawn. “And” between values parts separate entries of the source, which are not always exact repeats. Equal entries are not always repeated. Where two headings read alike, the source gives them in different places. Marks after values point to notes of the source that are not given here. Square brackets hold non-standard residues; d marks the D form. Peptide text beside a SMILES is read from it. * marks the point of attachment. Bn = c1ccc(C*)cc1; Sar = CNCC(=O)O; tBu = CC(C)(C)*

For data set [1], the target named is SARS-CoV-2 MPro (Severe acute respiratory syndrome coronavirus 2, UniProt P0DTD1). Nature of the data set: MPro activity assay (de-quenching of Edans fluorescence on cleavage of a Dabcyl/Edans peptide). To be noted: for IC50: 60 min pre-incubation, 5 μM substrate; for activity at 10 µM: read-out: % activity MPro; for Class (MPro activity class): in-house acquired data, internal screening under standardized conditions (128 compounds). Type of data set: biochemical.

The nature of data set [2]: Cytotoxicity assay, WST-1. To be noted: human, CC50 A549 cells. On the technique in general: Tetrazolium assays rely on reduction of a dye to a coloured formazan, in cell work by metabolically active cells.
Data set [3] concerns SARS-CoV-2 (βCoV/KOR/KCDC03/2020). The experiment in a line: microbe, parasite or virus in culture. Format: cell-based.
The nature of data set [4]: in vitro. To be noted: African green monkey.
Data set [5] concerns human lung cell line A549. The experiment in a line: Cytotoxicity assay, WST-1. To be noted: read-out: CC50 A549 cells, 24 h.
Data set [6] deals with MPro. To be noted: compiled from peer-reviewed sources (287 compounds) ref the 18 original articles; cited from earlier work.
Data set [7] has as its system Vero cells.
Data set [8] deals with SARS-CoV-2. On the set-up: method as in Henss et al., 2021. To be noted: 72 h assay ref Henss et al., 2021, cited from earlier work.
[9] abbreviates: Severe acute respiratory syndrome coronavirus 2, Vero, 24 h.
The mark [10] stands for this setting: Severe acute respiratory syndrome coronavirus 2, Vero, read-out: inhibition of viral replication.

Take `[O-][n+]1onc2ccc(/C=C\c3ccc(Cl)cc3)cc21` [2d]: the activity at 25 µM in data set [1] (read-out: MPro activity (%)) came to 53.2 ± 0.2%. The same compound yielded a CC50 at 24 h in data set [2] of over 50 µM.
On to `[O-][n+]1onc2ccc(/C=C/Sc3ccc(Cl)cc3)cc21` [3d], for which the IC50 was 0.73 ± 0.16 µM in data set [1], 8.3 µM in data set [3] and about 8 µM in data set [3] (setting [9]). The CC50 in data set [4] was 15.2 µM; in data set [5] it was under 50 µM. This compound also returned a CC50 at 24 h in data set [2] of at most 50 µM.
As to `[O-][n+]1onc2ccc(/C=C/[S+]([O-])c3ccc(Cl)cc3)cc21` (stereo not shown) [4d], the IC50 in data set [1] was 0.121 ± 0.002 µM; in data set [3] it was 7.3 µM; in data set [3] (setting [9]), about 8 µM. Also, the CC50 is 15.2 µM in data set [4] and 50 to 100 µM in data set [5]. Moreover, the CC50 at 24 h in data set [2] was at most 50 µM.
For `O=C(/C=C/c1ccc2no[n+]([O-])c2c1)c1ccc(Cl)cc1` [5d], the IC50 is 0.64 ± 0.02 µM in data set [1], 43.2 µM in data set [3] and about 44 µM in data set [3] (setting [9]). Also, the CC50 in data set [4] is over 50 µM. For the same compound, the CC50 at 24 h in data set [2] is over 50 µM.
As for `O=C(OC[C@H]1O[C@@H]([S+]([O-])c2ccccc2)[C@H](OC(=O)c2ccccc2)[C@@H](OC(=O)c2ccccc2)[C@@H]1OC(=O)c1ccccc1)c1ccccc1` (stereo partly shown) [7a], the results for the IC50 in data set [1] and in data set [3] (setting [9]) were 20.2 ± 1.9 µM and over 50 µM, respectively. In data set [3] (Severe acute respiratory syndrome coronavirus 2, Vero, at 25 μM, read-out: inhibition of viral replication), the inhibition at 25 µM was determined as 15%. The inhibition at 50 µM in data set [3] (setting [10]) was 21%. Also, in data set [4], the CC50 was over 50 µM.
With `O=CC(CC1CCNC1=O)NC(=O)C(CC1CCCCC1)NC(=O)c1cc2ccccc2[nH]1` (stereo not shown) [11a], the activity at 10 µM in data set [1] was 104 ± 1.1%. For the same compound, the “Class (MPro activity class)” value in data set [6] was 1 (Compounds with IC50 < 10 µM or with a percentage of enzyme inhibition >50% at 10 µM were labelled as ACTIVE).
Consider `Nc1ccc(S(=O)(=O)c2ccc(Nc3c([N+](=O)[O-])c(Cl)cc4c3no[n+]4[O-])cc2)cc1` [22d], for which the IC50 in data set [1] was 0.37 ± 0.085 µM; in data set [3] it was 44.8 µM; in data set [3] (setting [9]), about 44 µM. Further, in data set [4], the CC50 is over 50 µM. The compound further registered a CC50 at 24 h in data set [2] of over 100 µM.
`O=C(/C=C/c1ccc2ccccc2c1)c1c(O)ccc2ccccc12` [27d] registered an IC50 in data set [1] of 5.8 µM. For the same compound, the “antiviral activity (in words)” value in data set [3] is given as “lacked antiviral activity”.
As for `O=C(/C=C/c1cccc2ccccc12)c1c(O)ccc2ccccc12` [28d], the IC50 in data set [1] is 1.4 µM and 1.35 µM; in data set [3] (setting [9]), 48.9 µM. Moreover, the “impairment of cell viability” value in data set [7] (African green monkey) was about 25%. The CC50 in data set [4] was over 50 µM. For the same compound, the CC50 at 24 h in data set [2] is over 100 µM.
In turn, `O=c1c(Cl)c(Cl)cnn1Cc1nc2ccccc2c2ccccc12` [39d] had an IC50 in data set [1] of 2 µM. Moreover, in data set [3] (setting [10]), the inhibition at 50 µM is 18%. Besides, in data set [7] (at 50 μM), the “impairment of cell viability” value is reported as 13%.
Take `CCN(CC)CCCC(C)Nc1ccnc2cc(Cl)ccc12` (stereo not shown) [Chloroquine]: the values for the IC50 in data set [3] and in data set [3] (setting [9]) were 17.8 µM and 18 µM, respectively. In data set [6], the “Class (MPro activity class)” value was 0 (compounds with IC50 > 20 μM, percentage inhibition <80% at 20 µM or 50 μM, or percentage enzyme inhibition <50% at 10 µM were labelled as INACTIVE). In addition, the CC50 in data set [4] was over 150 µM.
`O=c1c(Cl)c(Cl)cnn1Cc1nc2ccccc2c2ccccc12` [Cpd 39]: the IC50 was 1.97 ± 0.5 µM in data set [1] and over 50 µM in data set [3] (setting [9]). Besides, the “Class (MPro activity class)” value in data set [1] was 0 (compounds with IC50 > 20 μM, percentage inhibition <80% at 20 µM or 50 μM, or percentage enzyme inhibition <50% at 10 µM were labelled as INACTIVE). The compound further showed a CC50 in data set [4] of over 50 µM. This compound yielded a CC50 at 24 h in data set [2] of 50 to 100 µM.
For the compound `O=c1c2ccccc2[se]n1-c1ccccc1` [Ebselen], the IC50 in data set [3] came to 9.7 µM; in data set [3] (setting [9]) it was 10 µM. For the same compound, in data set [4], the CC50 is over 50 µM. This compound showed a CC50 at 24 h in data set [2] of over 100 µM.
For the compound `Cc1cccc(C)c1OCC(=O)N[C@@H](Cc1ccccc1)[C@@H](O)C[C@H](Cc1ccccc1)NC(=O)[C@H](C(C)C)N1CCCNC1=O` [Lopinavir], the figures for the IC50 in data set [3] and in data set [3] (setting [9]) were 21.5 µM and 22 µM, respectively. In data set [6], the “Class (MPro activity class)” value is reported as 0 (compounds with IC50 > 20 μM, percentage inhibition <80% at 20 µM or 50 μM, or percentage enzyme inhibition <50% at 10 µM were labelled as INACTIVE). The compound also had a CC50 in data set [4] of over 150 µM.
As for `CCC(CC)COC(=O)[C@H](C)N[P@](=O)(OC[C@H]1O[C@@](C#N)(c2ccc3c(N)ncnn23)[C@H](O)[C@@H]1O)Oc1ccccc1` [Remdesivir], the IC50 in data set [3] stood at 7.8 µM; in data set [3] (setting [9]) it was 8 µM. In addition, the “SI: selectivity index = CC50 mammalian cell/IC50 SARS-CoV-2” value in data set [7] is given as >50 (>6.4) ^a. In addition, in data set [6], the “Class (MPro activity class)” value was 0 (compounds with IC50 > 20 μM, percentage inhibition <80% at 20 µM or 50 μM, or percentage enzyme inhibition <50% at 10 µM were labelled as INACTIVE). Also, in data set [4], the CC50 was over 50 µM.
Consider `CCn1nc(C)cc1C(=O)N(Cc1ccccc1)Cc1ccccc1` [ZVR-117], for which, in data set [1], the “Class (MPro activity class)” value is listed as 0 (compounds with IC50 > 20 μM, percentage inhibition <80% at 20 µM or 50 μM, or percentage enzyme inhibition <50% at 10 µM were labelled as INACTIVE).
Same read-out and setting: as for `Cc1nc(N)sc1C(=O)N(Cc1ccccc1)Cc1ccccc1` [ZVR-119], the figure is 0 (compounds with IC50 > 20 μM, percentage inhibition <80% at 20 µM or 50 μM, or percentage enzyme inhibition <50% at 10 µM were labelled as INACTIVE).
`CC(C)(C)OC(=O)Nc1cccn(C(CC2CCCCC2)C(=O)NC(CC2CCNC2=O)C(=O)C(=O)NC2CC2)c1=O` (stereo not shown) [compound 13a]: in data set [1], the activity at 10 µM is 98.6 ± 0.9%. In data set [6], the “Class (MPro activity class)” value is listed as 1 (Compounds with IC50 < 10 µM or with a percentage of enzyme inhibition >50% at 10 µM were labelled as ACTIVE).
`O=C(/C=C/c1ccc2ccccc2c1)c1ccccc1O` [compound 25]: the IC50 stood at 0.46 ± 0.21 µM in data set [1] and 17.5 µM in data set [3]. Besides, the CC50 in data set [4] was 38.8 µM. The CC50 at 24 h in data set [2] is over 50 µM.
On to `O=C(O[C@@H]1Cc2c(O)cc(O)cc2O[C@@H]1c1cc(O)c(O)c(O)c1)c1cc(O)c(O)c(O)c1` [epigallocatechin gallate], for which, in data set [8], the “IC50 SARS-CoV-2 replication” value was 1.73 mg/L (≈ 3.77 µM). In addition, the IC50 in data set [8] (read-out: IC50 SARS-CoV-2 replication) was 3.9 µM.
Regarding `CCOC(=O)CN(C(=O)C1(C)CCc2c(C)c(O)c(C)c(C)c2O1)C(C(=O)NCCc1ccccc1)c1ccccc1` (stereo not shown) [vCOV194134], the “Class (MPro activity class)” value in data set [1] was 0 (compounds with IC50 > 20 μM, percentage inhibition <80% at 20 µM or 50 μM, or percentage enzyme inhibition <50% at 10 µM were labelled as INACTIVE).
As to `CC(OC(C)(C)C)C1NC(=O)CN(C)C(=O)C(Cc2ccccc2)NC(=O)CN(C)C1=O` (stereo not shown) [vCOV194214] (cyclo([Sar]F[Sar]T(tBu)); configuration not given here), in data set [1], the “Class (MPro activity class)” value is on record as 0 (compounds with IC50 > 20 μM, percentage inhibition <80% at 20 µM or 50 μM, or percentage enzyme inhibition <50% at 10 µM were labelled as INACTIVE).
The same measure, in the same setting: as for `CN1CC(=O)NC(Cc2ccccc2)C(=O)N(C)CC(=O)NC(CSCc2ccccc2)C1=O` (stereo not shown) [vCOV194219] (cyclo([Sar]C(Bn)[Sar]F); configuration not given here), the figure is 0 (compounds with IC50 > 20 μM, percentage inhibition <80% at 20 µM or 50 μM, or percentage enzyme inhibition <50% at 10 µM were labelled as INACTIVE).
